Results on 16 compounds are retold here after patent publication US11524951B2, “2-(2,4,5-substituted-anilino)pyrimidine compounds” (AstraZeneca AB, priority 2011, dated 2022).

One may read the IC50 as the midpoint of a concentration-inhibition curve.

Holding throughout (format): cell-based
The target of one assay is T1, Exon19 deletion EGFR (Homo sapiens, UniProt P00533, DEL746-750).
T1 construct: Assays to measure cellular phosphorylation of endogenous p-EGFR in cell lysates; endogenous in cells; host or cells: PC9 (human lung cell line)
T1 sequence (P00533 with tags, fused parts or gaps DEL746-750): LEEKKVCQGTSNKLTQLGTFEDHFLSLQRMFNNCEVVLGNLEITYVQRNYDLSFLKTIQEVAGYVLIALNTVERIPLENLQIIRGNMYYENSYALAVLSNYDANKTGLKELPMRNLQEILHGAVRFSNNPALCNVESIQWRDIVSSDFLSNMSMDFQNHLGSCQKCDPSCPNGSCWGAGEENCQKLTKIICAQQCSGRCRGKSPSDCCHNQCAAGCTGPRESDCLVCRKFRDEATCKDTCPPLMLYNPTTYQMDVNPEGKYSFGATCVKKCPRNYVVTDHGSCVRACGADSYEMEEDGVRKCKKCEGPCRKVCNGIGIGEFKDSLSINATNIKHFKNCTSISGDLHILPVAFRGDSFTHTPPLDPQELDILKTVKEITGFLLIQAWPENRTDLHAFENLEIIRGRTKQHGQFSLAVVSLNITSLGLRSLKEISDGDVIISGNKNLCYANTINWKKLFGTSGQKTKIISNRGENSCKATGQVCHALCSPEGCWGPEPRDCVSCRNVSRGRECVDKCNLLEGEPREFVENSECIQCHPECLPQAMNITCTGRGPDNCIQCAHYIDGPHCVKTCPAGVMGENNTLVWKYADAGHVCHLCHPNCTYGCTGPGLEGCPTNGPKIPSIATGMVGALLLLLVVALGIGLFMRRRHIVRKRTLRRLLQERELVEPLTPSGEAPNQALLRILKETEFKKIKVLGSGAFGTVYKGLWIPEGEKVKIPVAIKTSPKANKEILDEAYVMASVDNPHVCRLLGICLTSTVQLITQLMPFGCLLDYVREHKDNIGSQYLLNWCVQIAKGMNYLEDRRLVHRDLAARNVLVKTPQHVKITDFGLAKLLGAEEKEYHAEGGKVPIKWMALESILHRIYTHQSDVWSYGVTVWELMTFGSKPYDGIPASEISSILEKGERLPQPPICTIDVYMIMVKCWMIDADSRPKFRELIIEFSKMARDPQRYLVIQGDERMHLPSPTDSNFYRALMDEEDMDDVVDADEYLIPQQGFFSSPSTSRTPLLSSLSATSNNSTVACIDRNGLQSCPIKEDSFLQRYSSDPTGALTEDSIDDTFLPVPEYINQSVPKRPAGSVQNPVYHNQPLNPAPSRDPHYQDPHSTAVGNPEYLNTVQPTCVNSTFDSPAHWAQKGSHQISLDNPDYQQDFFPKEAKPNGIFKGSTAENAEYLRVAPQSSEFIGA
Kind of assay: Exon19 deletion EGFR (activating single mutant) cellular phosphorylation assay. Particulars: PC9 human lung cells (Exon 19 deletion EGFR); endogenous p-EGFR in cell lysates by ELISA; 2 h with compound; read-out: Assay 1 (IC50). Here is the method: Assay 1: Exon19 Deletion EGFR (Activating Single Mutant) Cellular Phosphorylation Assay
The human lung cell line PC9 (Exon 19 deletion EGFR) were obtained from the American type Culture Collection. […] Cells were grown in a humidified incubator at 37° C. with 5% CO2. Assays to measure cellular phosphorylation of endogenous p-EGFR in cell lysates were carried out according to the protocol described in the R&D Systems DuoSet IC Human Phospho-EGF R ELISA (R&D Systems catalogue number #DYC1095). 40 μL of cells were seeded (10000 cells/well) in growth medium in Corning black, clear-bottomed 384-well plates and incubated at 37° C. with 5% CO2 overnight. […] Plates were incubated for a further 2 h, then following aspiration of medium, 40 μL 1× lysis buffer was added to each well. Greiner black high bind 384-well plates were coated with capture antibody and then blocked with 3% BSA. Following removal of block, […], of lysate were transferred to the Greiner black high bind 384-well plates and incubated for 2 hours. Following aspiration and washing of the plates with PBS, 20 μL of detection antibody were added and incubated for 2 hours. […] The data obtained with each compound was exported into a suitable software package (such as Origin) to perform curve fitting analysis.
A general note: ELISA stands for enzyme-linked immunosorbent assay.

A further assay deals with T2, Wild-type EGFR (Homo sapiens, UniProt P00533).
T2 construct: Assays to measure cellular phosphorylation of endogenous p-EGFR in cell lysates; endogenous in cells; host or cells: LoVo (human colon cell line)
T2 sequence (P00533 25-1210): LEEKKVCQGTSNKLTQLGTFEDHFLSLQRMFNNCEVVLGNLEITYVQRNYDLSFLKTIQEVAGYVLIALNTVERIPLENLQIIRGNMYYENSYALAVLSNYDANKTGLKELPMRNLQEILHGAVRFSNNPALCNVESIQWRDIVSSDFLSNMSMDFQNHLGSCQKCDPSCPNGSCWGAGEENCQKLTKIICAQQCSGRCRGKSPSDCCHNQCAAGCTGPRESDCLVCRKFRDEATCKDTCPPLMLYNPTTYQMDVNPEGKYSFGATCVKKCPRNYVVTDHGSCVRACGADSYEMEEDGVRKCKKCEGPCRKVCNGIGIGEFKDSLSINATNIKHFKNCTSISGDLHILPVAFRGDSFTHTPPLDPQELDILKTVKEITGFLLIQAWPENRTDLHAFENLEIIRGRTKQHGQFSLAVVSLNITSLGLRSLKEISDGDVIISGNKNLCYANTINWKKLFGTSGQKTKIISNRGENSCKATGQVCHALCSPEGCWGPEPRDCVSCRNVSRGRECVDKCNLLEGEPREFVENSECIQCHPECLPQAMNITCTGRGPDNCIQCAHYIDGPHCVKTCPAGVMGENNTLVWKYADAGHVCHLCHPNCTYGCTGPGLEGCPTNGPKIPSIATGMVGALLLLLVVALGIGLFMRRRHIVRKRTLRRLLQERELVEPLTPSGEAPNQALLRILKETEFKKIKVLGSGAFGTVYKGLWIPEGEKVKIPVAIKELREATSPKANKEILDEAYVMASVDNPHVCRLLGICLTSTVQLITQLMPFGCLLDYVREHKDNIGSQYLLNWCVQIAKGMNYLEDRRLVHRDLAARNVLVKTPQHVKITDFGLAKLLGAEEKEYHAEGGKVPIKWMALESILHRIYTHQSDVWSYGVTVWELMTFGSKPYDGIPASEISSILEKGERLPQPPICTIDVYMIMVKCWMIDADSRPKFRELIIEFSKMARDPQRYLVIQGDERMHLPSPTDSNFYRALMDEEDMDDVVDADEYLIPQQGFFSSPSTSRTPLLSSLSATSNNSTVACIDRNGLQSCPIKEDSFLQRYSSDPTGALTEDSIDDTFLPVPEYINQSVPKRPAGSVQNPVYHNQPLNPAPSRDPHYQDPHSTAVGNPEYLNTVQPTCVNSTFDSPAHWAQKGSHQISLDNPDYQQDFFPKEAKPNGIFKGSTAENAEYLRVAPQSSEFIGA
Kind of assay: Wild-type EGFR cellular phosphorylation assay. The note with it: LoVo human colon cells; endogenous p-EGFR in cell lysates by ELISA; 2 h with compound, then stimulated 100 ng/ml for 10 minutes; read-out: Assay 3 (IC50). On the procedure: Assay 3: Wild-Type EGFR Cellular Phosphorylation Assay
The human colon cell line LoVo were obtained from the American type Culture Collection. […] Cells were grown in a humidified incubator at 37° C. with 5% CO2. Assays to measure cellular phosphorylation of endogenous p-EGFR in cell lysates were carried out according to the protocol described in the R&D Systems DuoSet IC Human Phospho-EGF R ELISA (R&D Systems catalogue number #DYC1095). 40 μL of cells were seeded (15000 cells/well) in growth medium in Corning black, clear-bottomed 384-well plates and incubated at 37° C. with 5% CO2 overnight. […] Plates were incubated for a further 2 h then stimulated with 100 ng/ml for 10 minutes and following aspiration of medium, 40 μL 1× lysis buffer was added to each well. Greiner black high bind 384-well plates were coated with capture antibody and then blocked with 3% BSA. […] Following aspiration and washing of the plates with PBS, 20 μL of detection antibody were added and incubated for 2 hours. […] The data obtained with each compound was exported into a suitable software package (such as Origin) to perform curve fitting analysis.

A further assay concerns the target T3, L858R/T790M EGFR (Homo sapiens, UniProt P00533, L858R/T790M).
T3 construct: Assays to measure cellular phosphorylation of endogenous p-EGFR in cell lysates; endogenous in cells; host or cells: NCI-H1975 (human lung cell line)
Kind of assay: L858R/T790M EGFR (double mutant) cellular phosphorylation assay. The note with it: NCI-H1975 human lung cells; endogenous p-EGFR in cell lysates by ELISA; 2 h with compound. On the procedure:
Assay 2: L858R/T790M EGFR (Double Mutant) Cellular Phosphorylation Assay
The human lung cell lines NCI-H1975 were obtained from the American type Culture Collection. […] Cells were grown in a humidified incubator at 37° C. with 5% CO2.
Assays to measure cellular phosphorylation of endogenous p-EGFR in cell lysates were carried out according to the protocol described in the R&D Systems DuoSet IC Human Phospho-EGF R ELISA (R&D Systems catalogue number #DYC1095).
40 μL of cells were seeded (10000 cells/well) in growth medium in Corning black, clear-bottomed 384-well plates and incubated at 37° C. with 5% CO2 overnight. […] Plates were incubated for a further 2 h and following aspiration of medium, 40 μL 1× lysis buffer was added to each well. Greiner black high bind 384-well plates were coated with capture antibody and then blocked with 3% BSA. Following removal of block, 15 μL of lysate were transferred to the Greiner black high bind 384-well plates and incubated for 2 hours. Following aspiration and washing of the plates with PBS, 20 μL of detection antibody were added and incubated for 2 hours. […] 20 μL QuantaBlu stop solution were added to plates and fluorescence read on an Envision plate reader using
The data obtained with each compound was exported into a suitable software package (such as Origin) to perform curve fitting analysis.

T3 sequence (P00533 25-1210 T790M/L858R): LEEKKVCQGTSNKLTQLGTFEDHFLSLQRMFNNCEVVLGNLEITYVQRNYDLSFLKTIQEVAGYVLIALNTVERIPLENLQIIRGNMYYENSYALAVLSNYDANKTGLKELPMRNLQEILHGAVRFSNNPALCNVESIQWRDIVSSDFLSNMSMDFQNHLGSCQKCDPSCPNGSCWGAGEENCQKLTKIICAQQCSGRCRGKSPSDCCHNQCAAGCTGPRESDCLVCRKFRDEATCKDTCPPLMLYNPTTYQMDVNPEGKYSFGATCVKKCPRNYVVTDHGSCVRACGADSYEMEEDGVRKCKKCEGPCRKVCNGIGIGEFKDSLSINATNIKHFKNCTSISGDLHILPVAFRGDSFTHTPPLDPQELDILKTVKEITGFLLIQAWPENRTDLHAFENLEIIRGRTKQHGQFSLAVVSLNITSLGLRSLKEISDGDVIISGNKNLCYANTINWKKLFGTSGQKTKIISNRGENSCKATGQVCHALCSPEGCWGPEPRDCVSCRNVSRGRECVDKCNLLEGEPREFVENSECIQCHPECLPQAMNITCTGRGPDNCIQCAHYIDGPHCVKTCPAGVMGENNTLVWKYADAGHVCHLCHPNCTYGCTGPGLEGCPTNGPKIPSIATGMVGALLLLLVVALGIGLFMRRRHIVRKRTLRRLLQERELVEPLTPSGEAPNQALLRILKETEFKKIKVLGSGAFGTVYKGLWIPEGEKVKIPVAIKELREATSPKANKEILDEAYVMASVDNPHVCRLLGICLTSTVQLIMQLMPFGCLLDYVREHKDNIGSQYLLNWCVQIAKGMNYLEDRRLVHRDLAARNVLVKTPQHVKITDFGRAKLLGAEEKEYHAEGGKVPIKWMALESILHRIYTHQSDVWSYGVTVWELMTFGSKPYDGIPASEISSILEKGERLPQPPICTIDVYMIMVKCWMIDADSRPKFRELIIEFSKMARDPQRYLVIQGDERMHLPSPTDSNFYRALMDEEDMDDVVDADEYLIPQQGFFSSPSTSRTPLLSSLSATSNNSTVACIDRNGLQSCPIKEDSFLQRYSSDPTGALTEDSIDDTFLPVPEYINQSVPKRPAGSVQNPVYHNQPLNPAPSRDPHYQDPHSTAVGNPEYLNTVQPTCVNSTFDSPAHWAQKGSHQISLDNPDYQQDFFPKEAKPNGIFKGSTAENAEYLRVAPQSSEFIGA

On to `C=CC(=O)Nc1cc(Nc2ncc(C)c(-c3cn(C)c4ccccc34)n2)c(OC)cc1N(C)CCN(C)C` [Example 19, N-(2-{2-Dimethylaminoethyl-methylamino}-4-methoxy-5-{[5-methyl-4-(1-methylindol-3-yl)pyrimidin-2-yl]amino}phenyl)prop-2-enamide], for which the IC50 on Exon19 deletion EGFR stood at 2.15 nM; at Wild-type EGFR, 70.8 nM; on L858R/T790M EGFR it was 1.46 nM.

Consider `C=CC(=O)Nc1cc(Nc2ncc(C)c(-c3cn(C)c4ccccc34)n2)c(OC)cc1N1CC[C@@H](N(C)C)C1` [Example 20, N-(2-{(3R)-3-Dimethylaminopyrrolidin-1-yl}-4-methoxy-5-{[5-methyl-4-(1-methylindol-3-yl)pyrimidin-2-yl]amino}phenyl)prop-2-enamide], for which the figures for the IC50 at Exon19 deletion EGFR, on Wild-type EGFR and at L858R/T790M EGFR were 7.49 nM, 193 nM and 5.28 nM, respectively.

Consider `C=CC(=O)Nc1cc(Nc2ncc(Cl)c(-c3cn(C)c4ccccc34)n2)c(OC)cc1N1CC[C@@H](N(C)C)C1` [Example 21, N-(5-{[5-Chloro-4-(1-methylindol-3-yl)pyrimidin-2-yl]amino}-2-{(3R)-3-dimethylaminopyrrolidin-1-yl}-4-methoxyphenyl)prop-2-enamide], for which the results for the IC50 at Exon19 deletion EGFR, on Wild-type EGFR and at L858R/T790M EGFR were 2.95 nM, 128 nM and 2.34 nM, respectively.

Regarding `C=CC(=O)Nc1cc(Nc2ncc(C#N)c(-c3cn(C)c4ccccc34)n2)c(OC)cc1N1CC[C@@H](N(C)C)C1` [Example 22, N-(5-{[5-Cyano-4-(1-methylindol-3-yl)pyrimidin-2-yl]amino}-2-{(3R)-3-dimethylaminopyrrolidin-1-yl}-4-methoxyphenyl)prop-2-enamide], the IC50 at Exon19 deletion EGFR was 2.14 nM; at Wild-type EGFR it was 73.4 nM; on L858R/T790M EGFR, 1.52 nM.

As to `C=CC(=O)Nc1cc(Nc2ncc(C#N)c(-c3cn(C)c4ccccc34)n2)c(OC)cc1N1CCN(C)CC1` [Example 23, N-(5-{[5-Cyano-4-(1-methylindol-3-yl)pyrimidin-2-yl]amino}-4-methoxy-2-{4-methylpiperazin-1-yl}phenyl)prop-2-enamide], the IC50 at Exon19 deletion EGFR amounted to 16.9 nM; at Wild-type EGFR, 3020 nM; at L858R/T790M EGFR, 17.6 nM.

With `C=CC(=O)Nc1cc(Nc2ncc(Cl)c(-c3c[nH]c4ccccc34)n2)c(OC)cc1N1CC[C@@H](N(C)C)C1` [Example 24, N-(5-{[5-Chloro-4-(1H-indol-3-yl)pyrimidin-2-yl]amino}-2-{(3R)-3-dimethylaminopyrrolidin-1-yl}-4-methoxyphenyl)prop-2-enamide], the concentration for half-maximal inhibition (IC50) at Exon19 deletion EGFR is 1.33 nM; at Wild-type EGFR, 35.7 nM; at L858R/T790M EGFR, 0.886 nM.

Regarding `C=CC(=O)Nc1cc(Nc2ncc(Cl)c(-c3c[nH]c4ccccc34)n2)c(OC)cc1N(C)CCN(C)C` [Example 25, N-(5-{[5-Chloro-4-(1H-indol-3-yl)pyrimidin-2-yl]amino}-2-{2-dimethyl-aminoethyl-methylamino}-4-methoxyphenyl)prop-2-enamide], the IC50 at Exon19 deletion EGFR amounted to 0.581 nM; on Wild-type EGFR, 10.9 nM; on L858R/T790M EGFR, 0.238 nM.

For the compound `C=CC(=O)Nc1cc(Nc2ncc(Cl)c(-c3cn(C)c4ccccc34)n2)c(OC)cc1N(C)CCN(C)C` [Example 26, N-(5-{[5-Chloro-4-(1-methylindol-3-yl)pyrimidin-2-yl]amino}-2-{2-dimethylaminoethyl-methylamino}-4-methoxyphenyl)prop-2-enamide], the IC50 on Exon19 deletion EGFR was 2.29 nM; at Wild-type EGFR, 58.3 nM; at L858R/T790M EGFR, 1.93 nM.

`C=CC(=O)Nc1cc(Nc2ncc(C#N)c(-c3c[nH]c4ccccc34)n2)c(OC)cc1N1CCN(C)CC1` [Example 27, N-(5-{[5-Cyano-4-(1H-indol-3-yl)pyrimidin-2-yl]amino}-4-methoxy-2-{4-methylpiperazin-1-yl}phenyl)prop-2-enamide]: the IC50 on Exon19 deletion EGFR came to 5.61 nM; at Wild-type EGFR, 318 nM; at L858R/T790M EGFR, 11.4 nM.

For `C=CC(=O)Nc1cc(Nc2ncc(C#N)c(-c3cn(C)c4ccccc34)n2)c(OC)cc1N(C)CCN(C)C` [Example 29, N-(5-{[5-Cyano-4-(1-methylindol-3-yl)pyrimidin-2-yl]amino}-2-{2-dimethylaminoethyl-methylamino}-4-methoxyphenyl)prop-2-enamide], the IC50 amounted to 1.23 nM at Exon19 deletion EGFR, 46.5 nM at Wild-type EGFR and 0.885 nM at L858R/T790M EGFR.

Take `C=CC(=O)Nc1cc(Nc2ncc(Cl)c(-c3cnn4ccccc34)n2)c(OC)cc1N(C)CCN1CCOCC1` [Example 31, N-{5-[(5-Chloro-4-pyrazolo[1,5-a]pyridin-3-ylpyrimidin-2-yl)amino]-4-methoxy-2-[methyl-(2-morpholin-4-ylethyl)amino]phenyl}prop-2-enamide]: the IC50 at Exon19 deletion EGFR worked out at 37.5 nM; on Wild-type EGFR, 2510 nM; on L858R/T790M EGFR it was 7.34 nM.

Turning to `C=CC(=O)Nc1cc(Nc2ncc(Cl)c(-c3cnn4ccccc34)n2)c(OC)cc1N(C)CCN1CCN(C)CC1` [Example 32, N-(5-{[5-Chloro-4-pyrazolo[1,5-a]pyridin-3-ylpyrimidin-2-yl]amino}-4-methoxy-2-{methyl-[2-(4-methylpiperazin-1-yl)ethyl]amino}phenyl)prop-2-enamide], the results for the IC50 at Exon19 deletion EGFR, at Wild-type EGFR and on L858R/T790M EGFR were 138 nM, 10500 nM and 23.8 nM, respectively.

`C=CC(=O)Nc1cc(Nc2ncc(Cl)c(-c3cn(C)c4ccccc34)n2)c(OC)cc1N1CC(N(C)C)C1` [Example 34, N-(5-{[5-Chloro-4-(1-methylindol-3-yl)pyrimidin-2-yl]amino}-2-{3-dimethylaminoazetidin-1-yl}-4-methoxyphenyl)prop-2-enamide]: the IC50 on Exon19 deletion EGFR came out at 9.04 nM; on Wild-type EGFR, 153 nM; on L858R/T790M EGFR, 3.77 nM.

With `C=CC(=O)Nc1cc(Nc2ncc(C)c(-c3cn(C)c4ccccc34)n2)c(OC)cc1N1CC(N(C)C)C1` [Example 35, N-(2-{3-Dimethylaminoazetidin-1-yl}-4-methoxy-5-{[5-methyl-4-(1-methylindol-3-yl)pyrimidin-2-yl]amino}phenyl)prop-2-enamide], the IC50 on Exon19 deletion EGFR was 8.57 nM; on Wild-type EGFR it was 262 nM; at L858R/T790M EGFR, 6.77 nM.

`C=CC(=O)Nc1cc(Nc2nccc(-c3cn(C)c4ccccc34)n2)c(OC)cc1N1CC(N(C)C)C1` [Example 36, N-(2-{3-Dimethylaminoazetidin-1-yl}-4-methoxy-5-{[4-(1-methylindol-3-yl)pyrimidin-2-yl]amino}phenyl)prop-2-enamide]: the IC50 on Exon19 deletion EGFR is 43.3 nM; at Wild-type EGFR it was 1050 nM; at L858R/T790M EGFR, 32.7 nM.

`C=CC(=O)Nc1cc(Nc2ncc(Cl)c(-c3c[nH]c4ccccc34)n2)c(OC)cc1N1CC(N(C)C)C1` [Example 37, N-(5-{[5-Chloro-4-(1H-indol-3-yl)pyrimidin-2-yl]amino}-2-{3-dimethylaminoazetidin-1-yl}-4-methoxyphenyl)prop-2-enamide]: the IC50 on Exon19 deletion EGFR was 2.11 nM; on Wild-type EGFR, 48.6 nM; on L858R/T790M EGFR it was 1.81 nM.
